Assay results published in patent US20110160196A1, “FACTOR XA INHIBITORS” (Millennium Pharmaceuticals, Inc., priority 2007, published 2011).
pIC50: −log10 of the molar value.

Target: T1, human plasma protein factor Xa (Homo sapiens, UniProt P00742)
T1 construct: The human plasma protein factor Xa was purchased; purchased Haematologic Technologies (Essex Junction, Vt.); host or cells: human plasma
Experiment: Factor Xa IC50 determination (cleavage of paranitroanilide substrate S-2765)
Format: biochemical
Conditions: factor Xa 1 nM, S-2765 100 μM, Tris buffered saline pH 7.4, read at 405 nm
Procedure, shortened: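 Human plasma factor Xa (1 nM) preincubated 5 min at room temperature with inhibitor (0.01 nM–10 μM) in Tris-buffered saline pH 7.4 with 5 mM CaCl2, 0.1% BSA, 5% DMSO. S-2765 added at 100 μM final; pNA release followed at 405 nm for 2 min. IC50 from four-parameter fit of initial velocities.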

T1 sequence (P00742 235-488 limits assumed): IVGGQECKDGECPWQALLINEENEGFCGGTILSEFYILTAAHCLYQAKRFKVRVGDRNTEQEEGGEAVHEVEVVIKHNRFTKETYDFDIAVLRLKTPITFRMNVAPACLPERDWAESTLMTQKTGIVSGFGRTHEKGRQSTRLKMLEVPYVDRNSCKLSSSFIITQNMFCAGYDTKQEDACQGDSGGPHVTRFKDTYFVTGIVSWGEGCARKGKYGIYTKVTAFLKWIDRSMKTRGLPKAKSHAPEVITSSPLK
T1 sequence (P00742 41-179 partner limits assumed): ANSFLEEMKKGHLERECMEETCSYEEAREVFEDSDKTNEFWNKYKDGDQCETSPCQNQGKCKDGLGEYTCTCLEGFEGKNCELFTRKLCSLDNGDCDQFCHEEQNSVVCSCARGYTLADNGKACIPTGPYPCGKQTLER

Structure (SMILES)	pIC50
O=C(NCc1cn(-c2ccc(N3CCCCC3=O)cc2N2CCS(=O)(=O)CC2)nn1)c1ccc(Cl)s1 [Compound 158, 5-Chloro-N-((1-(4-(2-oxopiperidin-1-yl)-2-((1,1-dioxo)thiomorpholino)phenyl)-1H-1,2,3-triazol-4-yl)methyl)thiophene-2-carboxamide]	≥ 7.00
O=C(NCc1cn(-c2ccc(-n3ccccc3=O)cc2-c2ccnc(F)c2)nn1)c1ccc(Cl)s1 [Compound 134, 5-Chloro-N-((1-(2-(2-fluoropyridin-4-yl)-4-(2-oxopyridin-1(2H)-yl)phenyl)-1H-1,2,3-triazol-4-yl)methyl)thiophene-2-carboxamide]	≥ 7.00
O=C(NCc1cn(-c2ccc(-n3ccccc3=O)cc2OCCCN2CCCC2)nn1)c1ccc(Cl)s1 [Compound 93, 5-Chloro-N-((1-(4-(2-oxopyridin-1(2H)-yl)-2-(3-(pyrrolidin-1-yl)propoxy)phenyl)-1H-1,2,3-triazol-4-yl)methyl)thiophene-2-carboxamide]	≥ 7.00
CN(C)Cc1cc(-n2ccccc2=O)ccc1-n1cc(CNC(=O)c2ccc(Cl)s2)nn1 [Compound 121, 5-Chloro-N-((1-(2-((dimethylamino)methyl)-4-(2-oxopyridin-1(2H)-yl)phenyl)-1H-1,2,3-triazol-4-yl)methyl)thiophene-2-carboxamide]	≥ 7.00
NC1CCN(c2cc(-n3ccccc3=O)ccc2-n2cc(CNC(=O)c3ccc(Cl)s3)nn2)CC1 [Compound 17, N-((1-(2-(4-Aminopiperidin-1-yl)-4-(2-oxopyridin-1(2H)-yl)phenyl)-1H-1,2,3-triazol-4-yl)methyl)-5-chlorothiophene-2-carboxamide]	≥ 7.00
O=C(NCc1cn(-c2ccc(-n3ccccc3=O)cc2OCc2nc3ccccc3[nH]2)nn1)c1ccc(Cl)s1 [Compound 173, N-((1-(2-((1H-Benzo[d]imidazol-2-yl)methoxy)-4-(2-oxopyridin-1(2H)-yl)phenyl)-1H-1,2,3-triazol-4-yl)methyl)-5-chlorothiophene-2-carboxamide]	≥ 7.00
O=C(NCc1cn(-c2ccc(-n3ccccc3=O)cc2OCCc2ccncc2)nn1)c1ccc(Cl)s1 [Compound 91, 5-Chloro-N-((1-(4-(2-oxopyridin-1(2H)-yl)-2-(2-(pyridin-4-yl)ethoxy)phenyl)-1H-1,2,3-triazol-4-yl)methyl)thiophene-2-carboxamide]	≥ 7.00
O=C(NCc1cn(-c2ccc(-n3ccccc3=O)cc2OCCCO)nn1)c1ccc(Cl)s1 [Compound 74, 5-Chloro-N-((1-(2-(3-hydroxypropoxy)-4-(2-oxopyridin-1(2H)-yl)phenyl)-1H-1,2,3-triazol-4-yl)methyl)thiophene-2-carboxamide]	≥ 7.00
CN(C)C(=O)c1cc(-n2ccccc2=O)ccc1-n1cc(CNC(=O)c2ccc(Cl)s2)nn1 [Compound 103, 5-Chloro-N-((1-(2-(dimethylcarbamoyl)-4-(2-oxopyridin-1(2H)-yl)phenyl)-1H-1,2,3-triazol-4-yl)methyl)thiophene-2-carboxamide]	≥ 7.00

The next lines start with the values.

pIC50	Structure (SMILES)
≥ 7.00	COc1cc(-c2cc(-n3ccccc3=O)ccc2-n2cc(CNC(=O)c3ccc(Cl)s3)nn2)ccn1 [Compound 138, 5-Chloro-N-((1-(2-(2-methoxypyridin-4-yl)-4-(2-oxopyridin-1(2H)-yl)phenyl)-1H-1,2,3-triazol-4-yl)methyl)thiophene-2-carboxamide]
≥ 7.00	O=C(NCc1nnn(-c2ccc(-n3ccccc3=O)cc2OC[C@@H](O)CO)c1I)c1ccc(Cl)s1 [Compound 155, 5-Chloro-N-((1-(2-((S)-2,3-dihydroxypropoxy)-4-(2-oxopyridin-1(2H)-yl)phenyl)-5-iodo-1H-1,2,3-triazol-4-yl)methyl)thiophene-2-carboxamide]
≥ 7.00	CNC(=O)c1cc(-n2ccccc2=O)ccc1-n1cc(CNC(=O)c2ccc(Cl)s2)nn1 [Compound 102, 5-Chloro-N-((1-(2-(methylcarbamoyl)-4-(2-oxopyridin-1(2H)-yl)phenyl)-1H-1,2,3-triazol-4-yl)methyl)thiophenc-2-carboxamide]
≥ 7.00	O=C(NCc1cn(-c2ccc(-n3ccccc3=O)cc2N2CCCC2=O)nn1)c1ccc(Cl)s1 [Compound 43, 5-Chloro-N-((1-(4-(2-oxopyridin-1(2H)-yl)-2-(2-oxopyrrolidin-1-yl)phenyl)-1H-1,2,3-triazol-4-yl)methyl)thiophene-2-carboxamide]
6.30 to 7.00	O=C(NCc1cn(-c2ccc(-n3ccccc3=O)cc2C(=O)O)nn1)c1ccc(Cl)s1 [Compound 100, 2-(4-((2-Chlorothiophcne-5-carboxamido)methyl)-1H-1,2,3-triazol-1-yl)-5-(2-oxopyridin-1(2H)-yl)benzoic acid]
≥ 7.00	CN(C)CCNC(=O)c1cc(-n2ccccc2=O)ccc1-n1cc(CNC(=O)c2ccc(Cl)s2)nn1 [Compound 109, N-((1-(2-((2-(Dimethylamino)ethyl)carbamoyl)-4-(2-oxopyridin-1(2H)-yl)phenyl)-1H-1,2,3-triazol-4-yl)methyl)-5-chlorothiophene-2-carboxamide]
6.30 to 7.00	O=C(NCc1nnn(-c2ccc(-n3ccccc3=O)cc2OCCCO)c1I)c1ccc(Cl)s1 [Compound 153, 5-Chloro-N-((1-(2-(3-hydroxypropoxy)-4-(2-oxopyridin-1(2H)-yl)phenyl)-5-iodo-1H-1,2,3-triazol-4-yl)methyl)thiophene-2-carboxamide]
≥ 7.00	CN(CCO)c1cc(-n2ccccc2=O)ccc1-n1cc(CNC(=O)c2ccc(Cl)s2)nn1 [Compound 28, 5-Chloro-N-((1-(2-((2-hydroxyethyl)(methyl)amino)-4-(2-oxopyridin-1(2H)-yl)phenyl)-1H-1,2,3-triazol-4-yl)methyl)thiophene-2-carboxamide]
≥ 7.00	Nc1cc(-n2ccccc2=O)ccc1-n1cc(CNC(=O)c2ccc(Cl)s2)nn1 [Compound 45, N-((1-(2-Amino-4-(2-oxopyridin-1(2H)-yl)phenyl)-1H-1,2,3-triazol-4-yl)methyl)-5-chlorothiophene-2-carboxamide]
≥ 7.00	O=C1CN(C(=O)c2cc(-n3ccccc3=O)ccc2-n2cc(CNC(=O)c3ccc(Cl)s3)nn2)CCN1 [Compound 114, 5-Chloro-N-((1-(2-(2-oxopiperazine-4-carbonyl)-4-(2-oxopyridin-1(2H)-yl)phenyl)-1H-1,2,3-triazol-4-yl)methyl)thiophene-2-carboxamide]
6.30 to 7.00	O=C(NCc1nnn(-c2ccc(-n3ccccc3=O)cc2OC[C@H](O)CO)c1I)c1ccc(Cl)s1 [Compound 154, 5-Chloro-N-((1-(2-((R)-2,3-dihydroxypropoxy)-4-(2-oxopyridin-1(2H)-yl)phenyl)-5-iodo-1H-1,2,3-triazol-4-yl)methyl)thiophene-2-carboxamide]
≥ 7.00	CN(C)CC[N+](C)(C)CCOc1cc(-n2ccccc2=O)ccc1-n1cc(CNC(=O)c2ccc(Cl)s2)nn1 [Compound 86]
≥ 7.00	O=C(NCc1cn(-c2ccc(-n3ccccc3=O)cc2CO)nn1)c1ccc(Cl)s1 [Compound 119, 5-Chloro-N-((1-(2-(hydroxymethyl)-4-(2-oxopyridin-1(2H)-yl)phenyl)-1H-1,2,3-triazol-4-yl)methyl)thiophene-2-carboxamide]
≥ 7.00	O=C(NCc1cn(-c2ccc(-n3ccccc3=O)cc2OCCO)nn1)c1ccc(Cl)s1 [Compound 75, 5-Chloro-N-((1-(2-(2-hydroxyethoxy)-4-(2-oxopyridin-1(2H)-yl)phenyl)-1H-1,2,3-triazol-4-yl)methyl)thiophene-2-carboxamide]
